{
  "source": "paper PMC10728897",
  "about": "“High-Throughput Engineering of Nonribosomal Extension Modules” (ACS Chemical Biology, 2023)",
  "key": {"TycC6 C-A-T tridomain": {"target": "T1, TycC6 C-A-T tridomain (Brevibacillus parabrevis, UniProt O30409)", "T1 construct": "gene tycC; ppant installed by Sfp", "T1 sequence (O30409 5200-6255 limits assumed)": "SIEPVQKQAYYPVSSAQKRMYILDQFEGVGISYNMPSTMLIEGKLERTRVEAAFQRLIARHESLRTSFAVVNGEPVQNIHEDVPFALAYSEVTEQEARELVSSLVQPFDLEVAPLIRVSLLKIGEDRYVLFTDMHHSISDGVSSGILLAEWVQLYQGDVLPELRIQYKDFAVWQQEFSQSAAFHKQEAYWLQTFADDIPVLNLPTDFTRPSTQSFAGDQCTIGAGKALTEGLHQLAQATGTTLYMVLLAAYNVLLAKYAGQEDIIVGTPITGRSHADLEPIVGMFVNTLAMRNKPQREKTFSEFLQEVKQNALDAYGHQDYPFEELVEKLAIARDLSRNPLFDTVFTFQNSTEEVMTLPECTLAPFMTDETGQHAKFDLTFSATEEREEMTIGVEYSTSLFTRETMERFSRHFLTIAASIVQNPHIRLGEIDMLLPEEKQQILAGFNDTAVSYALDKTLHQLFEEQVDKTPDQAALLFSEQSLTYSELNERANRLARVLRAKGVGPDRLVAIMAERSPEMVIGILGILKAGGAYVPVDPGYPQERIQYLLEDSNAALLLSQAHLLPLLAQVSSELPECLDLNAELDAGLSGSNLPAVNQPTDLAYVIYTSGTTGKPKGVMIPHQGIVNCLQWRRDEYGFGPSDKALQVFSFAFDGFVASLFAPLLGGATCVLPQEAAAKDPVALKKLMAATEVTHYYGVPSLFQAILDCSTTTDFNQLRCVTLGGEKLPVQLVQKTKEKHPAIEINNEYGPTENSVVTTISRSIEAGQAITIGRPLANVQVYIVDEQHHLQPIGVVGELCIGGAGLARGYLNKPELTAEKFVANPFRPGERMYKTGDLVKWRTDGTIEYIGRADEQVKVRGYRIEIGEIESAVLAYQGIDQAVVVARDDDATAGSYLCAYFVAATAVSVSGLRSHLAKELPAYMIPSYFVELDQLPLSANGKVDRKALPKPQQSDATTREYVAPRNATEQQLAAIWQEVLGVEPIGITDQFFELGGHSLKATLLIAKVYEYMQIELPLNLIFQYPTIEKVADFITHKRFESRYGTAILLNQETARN", "assay": "yeast surface display loading assay, click biotinylation, flow cytometry", "type": "cell-based", "conditions": "20 and 50 mM pGly, 0.1 mM ATP, 1 mM MgCl2, pH 7.4, 25 C; covalent loading on ppant of T domain; modest efficiency"}, "TycB2 A-T bidomain": {"target": "T2, TycB2 A-T bidomain (Brevibacillus parabrevis, UniProt O30408, M1767A/M1802I, form not given)", "T2 construct": "gene tycB; ppant installed by Sfp", "T2 sequence (O30408 1530-2090 M1767A/M1802I, form open)": "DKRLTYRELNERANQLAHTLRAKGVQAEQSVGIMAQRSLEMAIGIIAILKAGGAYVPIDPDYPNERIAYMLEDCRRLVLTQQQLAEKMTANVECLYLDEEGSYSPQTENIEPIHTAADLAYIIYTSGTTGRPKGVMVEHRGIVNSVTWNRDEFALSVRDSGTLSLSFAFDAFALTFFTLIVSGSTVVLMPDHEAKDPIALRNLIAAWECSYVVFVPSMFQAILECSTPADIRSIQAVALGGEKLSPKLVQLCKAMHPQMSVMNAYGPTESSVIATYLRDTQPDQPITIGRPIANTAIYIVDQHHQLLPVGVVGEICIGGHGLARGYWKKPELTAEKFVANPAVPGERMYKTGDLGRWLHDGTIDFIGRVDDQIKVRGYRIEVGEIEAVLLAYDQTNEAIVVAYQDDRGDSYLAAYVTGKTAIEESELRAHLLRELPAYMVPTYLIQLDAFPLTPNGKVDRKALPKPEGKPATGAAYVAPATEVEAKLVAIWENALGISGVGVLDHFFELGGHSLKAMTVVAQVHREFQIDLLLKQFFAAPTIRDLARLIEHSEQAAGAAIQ", "assay": "yeast surface display loading assay, click biotinylation, flow cytometry", "type": "cell-based", "conditions": "0.5 mM pPhe with 0.5 mM L-Phe as competitor, 0.1 mM ATP, pH 7.4, 25 C; covalent loading on ppant of T domain"}},
  "data": [
    {"smiles": "C#CCC(N)C(=O)O", "note": "(centres unmarked) [pGly, propargyl glycine]", "values": [
      {"measurement": "yeast surface display loading assay, click biotinylation, flow cytometry", "setting": "TycC6 C-A-T tridomain", "value": "the displayed module was found to activate pGly in a concentration-dependent manner"}
    ]},
    {"smiles": "C#CCOc1ccc(C[C@H](N)C(=O)O)cc1", "note": "[pPhe, 4-propargyloxy-L-phenylalanine]", "values": [
      {"measurement": "yeast surface display loading assay, click biotinylation, flow cytometry", "setting": "TycB2 A-T bidomain", "value": "the variant with the M1768A and M1803I mutations was the most active and selective"}
    ]}
  ]
}
